target: T1, PDE4B2 (Homo sapiens, UniProt Q07343); assay: Inhibition of PDE4 activity, [3H]cAMP SPA enzyme assay with recombinant PDE4B2; format: biochemical; settings: recombinant PDE4B2 (GB no. M97515) expressed in SF21 insect cells; 0.5 μM cAMP; 15 min at 37° C.; read-out: PDE4 Inhibition [measured as −logIC50 (mol/l)] (converted)
T1 construct: made in house; host or cells: SF21 insect cells (baculovirus prepared in SF9 cells, pCR-Bac vector)
Procedure: Method for Measuring Inhibition of PDE4 Activities
The PDE4B2 (GB no. M97515) was a gift of Prof. M. Conti (Stanford University, USA). It was amplified from the original plasmid (pCMV5) via PCR with primers Rb9 (5′-[…]-3′) and Rb10 (5′-[…]-3′) and cloned into the pCR-Bac vector (Invitrogen, Groningen, NL).
The recombinant baculovirus was prepared by means of homologous recombination in SF9 insect cells. The expression plasmids were co-transfected with Bac-N-Blue (Invitrogen, Groningen, NL) or BaculoGold DNA (Pharmingen, Hamburg) using a standard protocol (Pharmingen, Hamburg). Wt virus-free recombinant virus supernatants were selected using plaque assay methods. After that, high-titre virus supernatants were prepared by amplifying 3 times. PDE4B2 was expressed in SF21 cells by infecting 2×10^6 cells/ml with an MOI (multiplicity of infection) between 1 and 10 in serum-free SF900 medium (Life Technologies, Paisley, UK). The cells were cultured at 28° C. for 48-72 hours, after which they were pelleted for 5-10 min at 1000 g and 4° C.
The SF21 insect cells were resuspended, at a concentration of approx. 10^7 cells/ml, in ice-cold (4° C.) homogenization buffer (20 mM Tris, pH 8.2, containing the following additions: 140 mM NaCl, 3.8 mM KCl, 1 mM EGTA, 1 mM MgCl2, 10 mM p-mercaptoethanol, 2 mM benzamidine, 0.4 mM Pefablock, 10 μM leupeptin, 10 μM pepstatin A, 5 μM trypsin inhibitor) and disrupted by ultrasonication. The homogenate was then centrifuged for 10 min at 1000×g and the supernatant was stored at 80° C. until subsequent use (see below). The protein content was determined by the Bradford method (BioRad, Munich) using BSA as the standard.
PDE4B2 activity was inhibited by the said compounds in a modified SPA (scintillation proximity assay) test, supplied by Amersham Biosciences (see procedural instructions “phosphodiesterase [3H]cAMP SPA enzyme assay, code TRKQ 7090”), carried out in 96-well microtitre plates (MTP's). The test volume is 100 μl and contains 20 mM Tris buffer (pH 7.4), 0.1 mg of BSA (bovine serum albumin)/ml, 5 mM Mg^2+, 0.5 μM cAMP (including about 50,000 cpm of [3H]cAMP), 1 μl of the respective substance dilution in DMSO and sufficient recombinant PDE (1000×g supernatant, see above) to ensure that 10-20% of the cAMP is converted under the said experimental conditions. […] After a preincubation of 5 min at 37° C., the reaction is started by adding the substrate (cAMP) and the assays are incubated for a further 15 min; after that, they are stopped by adding SPA beads (50 μl). In accordance with the manufacturer's instructions, the SPA beads had previously been resuspended in water, but were then diluted 1:3 (v/v) in water; the diluted solution also contains 3 mM IBMX to ensure a complete PDE activity stop. After the beads have been sedimented (>30 min), the MTP's are analyzed in commercially available […] detection devices. The corresponding IC50 values of the compounds for the inhibition of PDE activities are determined from the concentration-effect curves by means of non-linear regression.
The inhibitory values determined for the compounds according to the invention follow from the following Table 1, in which the numbers of the compounds correspond to the numbers of the examples.

T1 sequence (Q07343 1-564 isoform Q07343-2): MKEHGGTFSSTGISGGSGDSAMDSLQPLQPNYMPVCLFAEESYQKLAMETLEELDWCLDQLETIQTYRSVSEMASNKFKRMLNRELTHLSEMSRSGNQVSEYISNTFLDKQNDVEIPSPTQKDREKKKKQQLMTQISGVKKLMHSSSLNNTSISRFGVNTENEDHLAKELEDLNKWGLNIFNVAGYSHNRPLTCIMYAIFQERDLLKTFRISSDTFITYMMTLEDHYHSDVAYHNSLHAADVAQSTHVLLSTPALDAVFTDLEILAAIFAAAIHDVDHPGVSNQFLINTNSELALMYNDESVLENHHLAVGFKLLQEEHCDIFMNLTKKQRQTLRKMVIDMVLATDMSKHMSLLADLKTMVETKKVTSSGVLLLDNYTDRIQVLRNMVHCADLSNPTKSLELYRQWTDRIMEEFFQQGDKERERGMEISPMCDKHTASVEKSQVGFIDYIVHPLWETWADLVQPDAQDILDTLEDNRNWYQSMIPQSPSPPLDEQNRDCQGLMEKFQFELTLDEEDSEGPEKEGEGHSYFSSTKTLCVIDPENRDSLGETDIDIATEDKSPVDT

Row | IC50 [nM] | Structure (SMILES)
1 | 2.75 | CCOc1cc2c(cc1OC)C(c1ccc(C(=O)N(C(C)C)C(C)C)cc1)=N[C@@H]1CCOC[C@H]21 [Compound 1, 4-((4aR,10aR)-6-Ethoxy-7-methoxy-1,4,4a,10a-tetrahydro-2H-3-oxa-10-aza-phenanthren-9-yl)-N,N-diisopropyl-benzamide]
2 | 33.9 | CCOc1cc2c(cc1OC)C(c1ccc(C(=O)O)cc1)=N[C@@H]1CCOC[C@H]21 [Compound 3, 4-((4aR,10aR)-6-Ethoxy-7-methoxy-1,4,4a,10a-tetrahydro-2H-3-oxa-10-aza-phenanthren-9-yl)-benzoic acid]
3 | 57.5 | CCOc1cc2c(cc1OC)C(c1ccc(C(=O)N(C)C)cc1)=N[C@@H]1CCOC[C@H]21 [Compound 5, 1-[4-((4aR,10aR)-6-Ethoxy-7-methoxy-1,4,4a,10a-tetrahydro-2H-3-oxa-10-aza-phenanthren-9-yl)]-N,N-dimethyl-benzamide]

The next lines start with the molecule.

Row | Structure (SMILES) | IC50 [nM]
4 | CCOc1cc2c(cc1OC)C(c1ccc(C(=O)OC)cc1)=N[C@@H]1CCOC[C@H]21 [Compound 2, 4-((4aR,10aR)-6-Ethoxy-7-methoxy-1,4,4a,10a-tetrahydro-2H-3-oxa-10-aza-phenanthren-9-yl)-benzoic acid methyl ester] | 20
5 | CCOc1cc2c(cc1OC)C(c1ccc(C(=O)N3CCOCC3)cc1)=N[C@@H]1CCOC[C@H]21 [Compound 4, 1-[4((4aR,10aR)-6-Ethoxy-7-methoxy-1,4,4a,10a-tetrahydro-2H-3oxa-10-aza-phenanthren-9-yl)-phenyl]-1-morpholin-4-yl-methanone] | 39.8
6 | CCOc1cc2c(cc1OC)C(c1ccc(C(=O)N3CCN(C)CC3)cc1)=N[C@@H]1CCOC[C@H]21 [Compound 6, 1-[4-((4aR,10aR)-6-Ethoxy-7-methoxy-1,4,4a,10a-tetrahydro-2H-3oxa-10-aza-phenanthren-9-yl)-phenyl-]1-(4-methyl-piperazin-1-yl)-methanone] | 20.4

Reference: patent US7838521B2, “3-oxa-10-aza-phenanthrenes” (NYCOMED GmbH, priority 2004, dated 2010)
